This note sets out measurements from publication PMC12013614 (RSC Advances, 2025).

For one experiment, the system named is BAX. As to the kind of experiment: qRT-PCR gene expression, BAX. The conditions noted are these: MDA-231 cells; 21.68 μM; control set to 1; mean ± SEM. Format: cell-based.
The test system of the next experiment is Bcl-2. As to the kind of experiment: qRT-PCR gene expression, Bcl-2. The format is cell-based. To be noted: MDA-231 cells; 21.68 μM; control set to 1; mean ± SEM. (In general: Real-time PCR tracks product formation cycle by cycle.)
The test system of experiment [1] is MDA-MB-231 cells. As to the kind of experiment: Cell cycle analysis, PI flow cytometry. Format: cell-based. To be noted: 21.68 µM, 48 h. On the technique in general: In flow cytometry, cells or beads pass a laser one at a time.
The subject of another experiment is caspase-8. As to the kind of experiment: qRT-PCR gene expression, caspase-8. Format: cell-based. To be noted: MDA-231 cells; 21.68 μM; control set to 1; mean ± SEM.
A further experiment concerns the target VEGFR-2 (Homo sapiens, UniProt P35968). As to the kind of experiment: In vitro VEGFR-2 kinase inhibition. The format is biochemical.
Experiment [2] relates to MDA-MB-231 cells. As to the kind of experiment: Apoptosis analysis, Annexin V-FITC/PI flow cytometry. The format is cell-based.
The next experiment has as its system MDA-231 cells. As to the kind of experiment: Cell migration and wound healing assay. Format: cell-based. To be noted: 11 μM (0.5 IC50), untreated control 58.95.
The next experiment has as its system caspase-9. As to the kind of experiment: qRT-PCR gene expression, caspase-9. The format is cell-based. The conditions noted are these: MDA-231 cells; 21.68 μM; control set to 1; mean ± SEM.
For the next experiment, the system named is BAX/Bcl-2 ratio. Format: cell-based. To be noted: MDA-231 cells; 21.68 μM; control set to 1.

Marks after values point to notes of the source that are not given here.

VEGFR-2, sequence (P35968 20-1356): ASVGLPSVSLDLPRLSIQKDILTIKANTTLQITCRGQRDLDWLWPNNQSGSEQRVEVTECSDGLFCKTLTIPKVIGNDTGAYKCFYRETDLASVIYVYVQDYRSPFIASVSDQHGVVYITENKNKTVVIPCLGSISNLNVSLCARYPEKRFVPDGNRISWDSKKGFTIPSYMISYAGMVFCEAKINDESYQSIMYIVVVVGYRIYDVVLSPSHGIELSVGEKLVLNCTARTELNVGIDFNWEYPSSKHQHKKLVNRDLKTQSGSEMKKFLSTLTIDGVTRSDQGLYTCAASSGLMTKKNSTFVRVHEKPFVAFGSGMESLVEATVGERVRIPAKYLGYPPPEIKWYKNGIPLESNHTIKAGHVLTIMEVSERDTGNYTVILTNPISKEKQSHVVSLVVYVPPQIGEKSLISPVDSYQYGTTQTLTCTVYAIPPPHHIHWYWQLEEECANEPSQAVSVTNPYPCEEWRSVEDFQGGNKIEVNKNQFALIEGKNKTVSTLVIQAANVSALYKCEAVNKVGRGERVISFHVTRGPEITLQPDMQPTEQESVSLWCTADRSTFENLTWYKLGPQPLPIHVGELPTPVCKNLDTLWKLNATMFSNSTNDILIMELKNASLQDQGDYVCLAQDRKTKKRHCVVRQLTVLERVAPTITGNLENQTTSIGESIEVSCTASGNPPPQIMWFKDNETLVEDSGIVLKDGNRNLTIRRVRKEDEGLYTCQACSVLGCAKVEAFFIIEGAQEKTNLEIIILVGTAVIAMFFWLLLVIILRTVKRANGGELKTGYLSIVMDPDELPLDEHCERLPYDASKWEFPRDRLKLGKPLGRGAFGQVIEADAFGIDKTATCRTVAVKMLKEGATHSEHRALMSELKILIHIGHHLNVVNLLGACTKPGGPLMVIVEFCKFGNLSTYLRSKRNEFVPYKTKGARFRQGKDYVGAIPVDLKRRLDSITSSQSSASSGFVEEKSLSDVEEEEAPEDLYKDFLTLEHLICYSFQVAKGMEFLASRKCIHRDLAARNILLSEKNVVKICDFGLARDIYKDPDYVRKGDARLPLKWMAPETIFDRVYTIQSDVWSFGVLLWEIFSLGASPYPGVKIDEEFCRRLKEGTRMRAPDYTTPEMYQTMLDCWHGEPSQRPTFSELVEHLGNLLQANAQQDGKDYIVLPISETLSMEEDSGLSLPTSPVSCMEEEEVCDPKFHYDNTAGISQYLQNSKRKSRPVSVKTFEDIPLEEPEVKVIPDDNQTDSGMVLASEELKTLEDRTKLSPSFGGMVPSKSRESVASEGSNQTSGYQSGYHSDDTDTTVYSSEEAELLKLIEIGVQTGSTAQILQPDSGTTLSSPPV

Usually IC50 stands for the concentration that gives 50% inhibition. Take `COc1cccc(NC(=O)Nc2ccc(Oc3nc4ccccc4n4cnnc34)cc2)c1` [11d, 1-(4-([1,2,4]Triazolo[4,3-a]quinoxalin-4-yloxy)phenyl)-3-(3-methoxyphenyl)urea]: the “Gene expression (fold change), BAX” value in the experiment with BAX was 5.48 ± 0.45 ^a fold change. In the experiment on Bcl-2, the “Gene expression (fold change), Bcl-2” value was 0.34 ± 0.01 ^a fold change. Besides, the “Cell cycle distribution (%), % G2/M” value in the experiment with MDA-MB-231 cells [1] (untreated 10.59) was 3.74 ^a %. In the experiment on MDA-MB-231 cells [1] (untreated 19.48), the “Cell cycle distribution (%), % sub-G1” value was 15.75%. Further, in the experiment on MDA-MB-231 cells [1] (untreated 24.95), the “Cell cycle distribution (%), % S” value is reported as 16.45 ^a %. Also, the “Cell cycle distribution (%), % G1” value with MDA-MB-231 cells [1] (untreated 44.98) is 64.06 ^a %. Moreover, the “Gene expression (fold change), Caspases-8” value with caspase-8 was 4.15 ± 0.48 ^a fold change. Besides, the IC50 against VEGFR-2 was determined as 62.3 ± 2.77 nM. Moreover, the viability at 21.68 µM in the experiment with MDA-MB-231 cells [2] (Homo sapiens, MDA-MB-231, 48 h, read-out: Viable (left bottom)) was determined as 20.2%. In addition, the “Necrosis (left top)” value in the experiment on MDA-MB-231 cells [2] (MDA-MB-231, 21.68 µM, 48 h, untreated 0.32) was 1.91 ^a %. Moreover, the “Apoptosis, Late (right top)” value in the experiment on MDA-MB-231 cells [2] (MDA-MB-231, 21.68 µM, 48 h, untreated 0.45) is reported as 31.49 ^a %. Further, in the experiment on MDA-MB-231 cells [2] (MDA-MB-231, 21.68 µM, 48 h, untreated 3.84), the “Apoptosis, Early (right bottom)” value is recorded as 46.43 ^a %. Besides, in the experiment with MDA-231 cells, the “Quantitative closure (%) for scratched assay after 48 h” value was determined as 27.51%. Further, the “Gene expression (fold change), Caspases-9” value in the experiment with caspase-9 is 5.58 ± 0.40 ^a fold change. In addition, the “Gene expression (fold change), BAX/Bcl-2 ratio” value with BAX/Bcl-2 ratio came to 16.11 ± 1.01 fold change.
